Assay results from US5061794A, “Cephalosporin derivatives, and antibacterial agents” (priority 1986, dated 1991).
Converted amounts (≈) assume the structure as drawn. Like-named read-outs stand apart in the source and are kept apart here.

Assays:
E. coli CSH(RE45) = assay: microbe, parasite or virus in culture; assay type: cell-based; conditions: Escherichia coli, 16 h, read-out: Minimum Inhibitory Concentration (MIC), *E. coli CSH(RE45), lactamase-producing strain; 10^6 CFU/ml
How it was run: (§1)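 First, strains were cultured overnight in Mueller Hinton broth. Next, one loopful went onto drug-containing Mueller Hinton agar (10^6 CFU/ml). Finally, after 37° C. incubation for 16 hours, MIC was determined in μg/ml.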

E. coli CSH2 (RK1) = assay: microbe, parasite or virus in culture; assay type: cell-based; conditions: Escherichia coli, 16 h, read-out: Minimum Inhibitory Concentration (MIC), *E. coli CSH2 (RK1), lactamase-producing strain; 10^6 CFU/ml
How it was run: as §1

E. cloacae 963 = assay: in vitro antibacterial activity, agar plate dilution method (MIC); assay type: cell-based; conditions: 10^6 CFU/ml
How it was run: as §1

E. cloacae Nek 39 = assay: as above; assay type: cell-based; conditions: Enterobacter cloacae, NEK39, 16 h, read-out: Minimum Inhibitory Concentration (MIC), *E. cloacae Nek 39, lactamase-producing strain; 10^6 CFU/ml
How it was run: as §1

E. coli GN5482 = assay: as above; assay type: cell-based; conditions: Escherichia coli, GN5482, 16 h
How it was run: as §1

E. coli NIHJ JC2 = assay: as above; assay type: cell-based; conditions: Escherichia coli, NIHJJC2, 16 h, read-out: Minimum Inhibitory Concentration (MIC), E. coli NIHJ JC2, 10^6 CFU/ml, 37° C.
How it was run: as §1

K. oxytoca GN10650 = assay: as above; assay type: cell-based; conditions: Klebsiella oxytoca, 10^6 CFU/ml
How it was run: as §1

K. pneumoniae No. 42 = assay: as above; assay type: cell-based; conditions: Klebsiella pneumoniae, 10^6 CFU/ml
How it was run: as §1

K. pneumoniae PCI-602 = assay: as above; assay type: cell-based; conditions: Klebsiella pneumoniae, PCI602, 16 h, 10^6 CFU/ml
How it was run: as §1

M. morganii GN5407 = assay: as above; assay type: cell-based; conditions: Morganella morganii, GN5407, 16 h, read-out: Minimum Inhibitory Concentration (MIC), *M. morganii GN5407, lactamase-producing strain; 10^6 CFU/ml
How it was run: as §1

P. vulgaris HX-19 = assay: as above; assay type: cell-based; conditions: Proteus vulgaris, HX19, 16 h, P. vulgaris HX-19; 10^6 CFU/ml; read-out: Minimum Inhibitory Concentration (MIC)
How it was run: as §1

P. vulgaris No. 33 = assay: as above; assay type: cell-based; conditions: Proteus vulgaris, NO.33, 16 h, read-out: Minimum Inhibitory Concentration (MIC), *P. vulgaris No. 33, lactamase-producing strain; 10^6 CFU/ml
How it was run: as §1

S. aureus 209P NIHJ-JC1 = assay: as above; assay type: cell-based; conditions: Staphylococcus aureus, 16 h
How it was run: as §1

S. marcescens IAM 1184 = assay: as above; assay type: cell-based; conditions: Serratia marcescens, IAM1184, 16 h, read-out: Minimum Inhibitory Concentration (MIC)
How it was run: as §1

S. marcescens No. 16-2 = assay: as above; assay type: cell-based; conditions: Serratia marcescens, NO.162, 16 h
How it was run: as §1

Ps. aeruginosa AK 109 = assay: as above; assay type: cell-based, Pseudomonas aeruginosa; conditions: Pseudomonas aeruginosa, AK109, 16 h, read-out: Minimum Inhibitory Concentration (MIC)
How it was run: as §1

Ps. aeruginosa AKR17 = assay: as above; assay type: cell-based, Pseudomonas aeruginosa; conditions: Pseudomonas aeruginosa, read-out: Minimum Inhibitory Concentration (MIC)
How it was run: as §1

Ps. aeruginosa IF03445 = assay: as above; assay type: cell-based, Pseudomonas aeruginosa; conditions: Pseudomonas aeruginosa, 10^6 CFU/ml
How it was run: as §1

Ps. cepacia 23 = assay: as above; assay type: cell-based, Pseudomonas cepacia; conditions: read-out: Minimum Inhibitory Concentration (MIC)
How it was run: as §1

A. calcoaceticus No. 4 = assay: as above; assay type: cell-based, Acinetobacter calcoaceticus; conditions: Acinetobacter calcoaceticus, NO.4, 16 h, 10^6 CFU/ml
How it was run: as §1

[1] = Enterobacter cloacae, 963, 16 h, read-out: Minimum Inhibitory Concentration (MIC), E. cloacae 963
[2] = read-out: Minimum Inhibitory Concentration (MIC)
[3] = 16 h, *K. oxytoca GN10650, lactamase-producing strain, read-out: Minimum Inhibitory Concentration (MIC)
[4] = NO.42, 16 h, read-out: Minimum Inhibitory Concentration (MIC), *K. pneumoniae No. 42, lactamase-producing strain
[5] = K. pneumoniae PCI-602, read-out: Minimum Inhibitory Concentration (MIC)
[6] = *S. marcescens No. 16-2, lactamase-producing strain, 10^6 CFU/ml, read-out: Minimum Inhibitory Concentration (MIC)
[7] = Ps. aeruginosa AK 109, 10^6 CFU/ml
[8] = 16 h, Ps. aeruginosa AKR17, 10^6 CFU/ml
[9] = 16 h, Ps. aeruginosa IF03445, read-out: Minimum Inhibitory Concentration (MIC)
[10] = A. calcoaceticus No. 4, read-out: Minimum Inhibitory Concentration (MIC)
[11] = GN10650, 16 h, read-out: Minimum Inhibitory Concentration (MIC), *K. oxytoca GN10650, lactamase-producing strain
[12] = read-out: Minimum Inhibitory Concentration (MIC), K. pneumoniae PCI-602
[13] = read-out: Minimum Inhibitory Concentration (MIC), S. aureus 209P NIHJ-JC1, 10^6 CFU/ml, 37° C., 16 hours
[14] = S. marcescens IAM 1184, 10^6 CFU/ml
[15] = read-out: Minimum Inhibitory Concentration (MIC), *S. marcescens No. 16-2, lactamase-producing strain, 10^6 CFU/ml
[16] = IF03445, 16 h, read-out: Minimum Inhibitory Concentration (MIC), Ps. aeruginosa IF03445
[17] = Burkholderia cepacia, 16 h, Ps. cepacia 23, 10^6 CFU/ml
[18] = read-out: Minimum Inhibitory Concentration (MIC), A. calcoaceticus No. 4
[19] = read-out: Minimum Inhibitory Concentration (MIC), *E. coli GN5482, lactamase-producing strain, 10^6 CFU/ml

| Compound | MIC (E. coli CSH(RE45)) [µg/mL] | MIC (E. coli CSH2 (RK1)) [µg/mL] | MIC (E. cloacae 963; [1]) [µg/mL] | MIC (E. cloacae Nek 39) [µg/mL] | MIC (E. coli GN5482; [2]) [µg/mL] | MIC (E. coli NIHJ JC2) [µg/mL] | MIC (K. oxytoca GN10650; [3]) [µg/mL] | MIC (K. pneumoniae No. 42; [4]) [µg/mL] | MIC (M. morganii GN5407) [µg/mL] | MIC (P. vulgaris HX-19) [ng/mL] | MIC (P. vulgaris No. 33) [µg/mL] | MIC (Ps. aeruginosa AK 109; [7]) [µg/mL] | MIC (Ps. aeruginosa AKR17; [8]) [µg/mL] | MIC (A. calcoaceticus No. 4; [10]) [µg/mL] | MIC (K. oxytoca GN10650; [11]) [µg/mL] | MIC (K. pneumoniae PCI-602; [12]) [µg/mL] | MIC (S. marcescens IAM 1184; [14]) [µg/mL] | MIC (Ps. aeruginosa IF03445; [16]) [µg/mL] | MIC (Ps. cepacia 23; [17]) [µg/mL] | MIC (E. coli GN5482; [19]) [µg/mL] | other results |
| --- | --- | --- | --- | --- | --- | --- | --- | --- | --- | --- | --- | --- | --- | --- | --- | --- | --- | --- | --- | --- | --- |
| CO/N=C(\C(=O)N[C@@H]1C(=O)N2C(C(=O)O)=C(CSc3nc(-c4ccccc4)c(CC(=O)O)s3)CS[C@H]12)c1csc(N)n1 [compound 15, disodium 7β-[2-(2-aminothiazol-4-yl)-2-methoxyiminoacetamido]-3-(5-carboxylatemethyl-4-phenylthiazol-2-yl)thiomethyl-3-cephem-4-carboxylate, reference compound] | 0.78 | 0.39 | 0.39 | 12.5 | 3.12 | 0.78 | 25 | 0.78 | 0.39 | < 6 | 0.2 | 100 | > 100 | 100 |  |  |  |  |  |  | MIC (K. pneumoniae PCI-602; [5]): 0.2 µg/mL; MIC (S. aureus 209P NIHJ-JC1; [2]): 3.12 µg/mL; MIC (S. marcescens IAM 1184): 0.78 µg/mL; MIC (S. marcescens No. 16-2; [6]): 50 µg/mL; MIC (Ps. aeruginosa IF03445; [9]): 100 µg/mL; MIC (Ps. cepacia 23; Burkholderia cepacia, 23, 16 h): 6.25 µg/mL |
| CO/N=C(\C(=O)N[C@@H]1C(=O)N2C(C(=O)O)=C(CSc3nnc(-c4ccc(O)c(O)c4)o3)CS[C@H]12)c1csc(N)n1 [Ex. 1, sodium 7β-[2-(2-aminothiazol-4-yl)-2-methoxyiminoacetamido]-3-[5-(3, 4dihydroxyphenyl)-1,3,4-oxadiazol-2-yl]thiomethyl-3-cephem-4-carboxylate] | 0.78 | < 0.006 |  | 0.05 | 0.39 | 0.05 |  | 0.025 | 0.0125 | < 6 | 0.0125 |  | > 100 |  | 0.39 | < 0.006 | < 0.006 | 0.78 | 0.1 |  | MIC (E. cloacae 963; Enterobacter cloacae, 16 h, E. cloacae 963, read-out: Minimum Inhibitory Concentration (MIC)): < 0.006 µg/mL; MIC (S. aureus 209P NIHJ-JC1; [13]): 1.56 µg/mL; MIC (S. marcescens No. 16-2; [15]): 0.78 µg/mL; MIC (Ps. aeruginosa AK 109): 0.39 µg/mL; MIC (A. calcoaceticus No. 4; [18]): 0.1 µg/mL |
| CO/N=C(\C(=O)N[C@@H]1C(=O)N2C(C(=O)O)=C(CSc3ncc(-c4ccc(O)cc4)o3)CS[C@H]12)c1csc(N)n1 [compound 23, sodium 7β-[2-(2-aminothiazol-4-yl)-2-methoxyiminoacetamido]-3-[5-(4-hydroxyphenyl)-oxazol-2-yl]thiomethyl-3-cephem-4-carboxylate, reference compound] | 0.78 | 0.78 | 3.12 | 6.25 |  | 1.56 | 25 | 3.12 | 1.56 | < 6 | 0.78 | 50 | > 100 | 50 |  |  |  |  |  | 0.78 | MIC (K. pneumoniae PCI-602; [5]): 0.0125 µg/mL; MIC (S. aureus 209P NIHJ-JC1; S. aureus 209P NIHJ-JC1, 10^6 CFU/ml, 37° C., 16 hours, read-out: Minimum Inhibitory Concentration (MIC)): 0.2 µg/mL; MIC (S. marcescens IAM 1184): 0.78 µg/mL; MIC (S. marcescens No. 16-2; [6]): 25 µg/mL; MIC (Ps. aeruginosa IF03445; [9]): 50 µg/mL; MIC (Ps. cepacia 23; Burkholderia cepacia, 23, 16 h): 3.12 µg/mL |
| Nc1nc(/C(=N/OC(C(=O)O)c2ccc(O)c(O)c2)C(=O)N[C@@H]2C(=O)N3C(C(=O)O)=C(CSc4ncc(-c5ccc(O)c(O)c5)o4)CS[C@H]23)cs1 (stereo partly drawn) [Ex. 65, disodium 7β-(2-(2-aminothiazol-4-yl)-2-[(α-carboxylate-3,4-dihydroxybenzyl)oxyiminol]-acetamido}-3-[5-(3,4-dihydroxyphenyl)oxazol-2-yl]-thiomethyl-3-cephem-4-carboxylate] | 0.05 | 0.05 | 0.78 | 0.78 |  | 1.56 |  | 0.2 | 0.2 | 100 | 0.1 |  | 0.2 | 0.05 | 0.2 | < 0.006 | 0.2 | 1.56 | < 0.006 | 6.25 | MIC (S. aureus 209P NIHJ-JC1; [2]): 3.12 µg/mL; MIC (S. marcescens No. 16-2; [2]): 12.5 µg/mL; MIC (Ps. aeruginosa AK 109): 0.39 µg/mL |
| Nc1nc(/C(=N/OCc2ccccc2CC(=O)O)C(=O)N[C@@H]2C(=O)N3C(C(=O)O)=C(CSc4nnc(-c5ccc(O)c(O)c5)o4)CS[C@H]23)cs1 [Ex. 23] | < 0.006 | < 0.006 | 0.025 (≈ 0.0338 µM) | 0.1 (≈ 0.135 µM) |  | 0.2 (≈ 0.27 µM) |  |  | 0.025 (≈ 0.0338 µM) | < 6 | 0.0125 (≈ 0.0169 µM) | 0.1 (≈ 0.135 µM) |  |  | 0.1 (≈ 0.135 µM) | < 0.006 | 0.025 (≈ 0.0338 µM) | 0.39 (≈ 0.527 µM) | < 0.006 | 0.78 (≈ 1.05 µM) | MIC (K. pneumoniae No. 42; 16 h, *K. pneumoniae No. 42, lactamase-producing strain, read-out: Minimum Inhibitory Concentration (MIC)): < 0.006 µg/mL; MIC (S. aureus 209P NIHJ-JC1; [13]): 6.25 µg/mL (≈ 8.45 µM); MIC (S. marcescens No. 16-2; [15]): 1.56 µg/mL (≈ 2.11 µM); MIC (Ps. aeruginosa AKR17; AKR17, 16 h): 12.5 µg/mL (≈ 16.9 µM); MIC (A. calcoaceticus No. 4; [18]): 0.1 µg/mL (≈ 0.135 µM) |
